Assay results: patent US11731964B2, “Benzamide antibacterial agents” (Purdue Research Foundation, priority 2018, dated 2023)
Converted amounts (≈) assume the structure as drawn.

Assays:
Type in all cases: cell-based
S. aureus [1] = assay: Screening of compounds for growth inhibition of S. aureus at 16 μg/mL (OD600); settings: compound at 16 μg/mL, 24 hours, compared to DMSO control
Method: Library compounds and analogs of F6 were dissolved in DMSO at 10 mg/mL. S. aureus was cultured in Mueller Hinton Broth to early exponential phase at which point culture aliquots were incubated with compounds at 16 μg/mL or DMSO in duplicates. The culture was continued at 37° C. for 24 hours. Aliquots (100 μL) of the cultures were dispensed into clear 96 well microtiter plates and OD600 was recorded. Percent normalized OD600 was obtained by using the equation [formula] wherein for a given compound, X is the OD600 of culture with the compound, Xo is that of media only and XT is the OD600 of the DMSO control.

MRSA ATCC 33592 = assay: MIC, broth microdilution; settings: Staphylococcus aureus; MRSA ATCC 33592; read-out: MIC
Method: (§1) Bacteria were cultured in cation-adjusted Mueller Hinton Broth (for strains in Tables 1 and 4) or Brain Heart Infusion broth (for Enterococcus faecium) or Tryptic Soy Broth (all other bacteria) in a 96-well plate at 37° C. for at least 20 hours. The MIC was classified as the lowest concentration where no visual growth of bacteria was observed. The minimum bactericidal concentration (MBC) was tested by spotting 4 μL from wells with no growth onto Tryptic Soy Agar (TSA) plates. Plates were incubated at 37° C. for at least 18 hours before recording the MBC.

[2] = test system: L. monocytogenes ATCC 19115; assay: MIC, broth microdilution; settings: Listeria monocytogenes, ATCC19115; L. monocytogenes ATCC 19115; read-out: MIC
Method: as §1

E. faecalis ATCC 29212 = assay: MIC, broth microdilution; settings: Enterococcus faecalis, ATCC29212; E. faecalis ATCC 29212; read-out: MIC
Method: as §1

S. aureus ATCC 25923 = assay: MIC, broth microdilution; settings: Staphylococcus aureus, ATCC25923; S. aureus ATCC 25923; read-out: MIC
Method: as §1

[3] = test system: VRE (E. faecalis) ATCC 51575; assay: MIC, broth microdilution; settings: VRE (E. faecalis) ATCC 51575; read-out: MIC
Method: as §1

[4] = test system: C. difficile NR-32891 (P13); assay: Clostridium difficile inhibition analysis
[5] = test system: Clostridium difficile ATCC BAA 1801; assay: Clostridium difficile inhibition analysis
[6] = test system: C. difficile NR-32904 (P30); assay: Clostridium difficile inhibition analysis
[7] = test system: C. difficile NR-32895 (P19); assay: Clostridium difficile inhibition analysis
[8] = test system: C. difficile NR-32883 (P2); assay: Clostridium difficile inhibition analysis
[9] = test system: C. difficile NR-13435 (isolate 9); assay: Clostridium difficile inhibition analysis
[10] = test system: C. difficile NR-13432 (isolate 6); assay: Clostridium difficile inhibition analysis
[11] = test system: Clostridium difficile ATCC 9689; assay: Clostridium difficile inhibition analysis; settings: Table 6, ATCC 9689
[12] = test system: Clostridium difficile ATCC 43255; assay: Clostridium difficile inhibition analysis; settings: Table 6, ATCC 43255
S. aureus [13] = assay: MIC (Table 5, strain not given); settings: Staphylococcus aureus; S. aureus (Table 5)
Method: as §1

Structure (SMILES) | MIC (MRSA ATCC 33592) [µg/mL] | MIC [2] [µg/mL] | MIC (E. faecalis ATCC 29212) [µg/mL] | MIC (S. aureus ATCC 25923) [µg/mL] | MIC [3] [µg/mL] | inhibition of growth of S. aureus (S. aureus [1]) | also measured
CC1CC(C)CN(S(=O)(=O)c2cncc(C(=O)Nc3nnc(-c4ccc(C(F)(F)F)cc4)o3)c2)C1 (stereo not drawn) [HSGN 216, 5-((3,5-dimethylpiperidin-1-yl)sulfonyl)-N-(5-(4-(trifluoromethyl)phenyl)-1,3,4-oxadiazol-2-yl)nicotinamide] | – | – | – | – | – | – | Antibacterial activity ([4]; Table 7, C. difficile NR-32891 (P13)): 0.5; Antibacterial activity ([5]; Table 7, C. difficile ATCC BAA 1801): 0.25; Antibacterial activity ([6]; Table 7, C. difficile NR-32904 (P30)): 0.5; Antibacterial activity ([7]; Table 7, C. difficile NR-32895 (P19)): 0.125; Antibacterial activity ([8]; Table 7, C. difficile NR-32883 (P2)): 0.06; Antibacterial activity ([9]; Table 7, C. difficile NR-13435 (isolate 9)): 0.125; Antibacterial activity ([10]; Table 7, C. difficile NR-13432 (isolate 6)): 0.125
O=C(Nc1nnc(-c2ccc(C(F)(F)F)cc2)o1)c1ccc(S(=O)(=O)Nc2ccccc2)cc1 [HSGN-118, 4-(N-phenylsulfamoyl)-N-(5-(4-(trifluoromethyl)phenyl)-1,3,4-oxadiazol-2-yl)benzamide] | 4 (≈ 8.19 µM) | – | – | – | – | – | Clostridium difficile inhibition [11]: 0.5; Clostridium difficile inhibition ([4]; Table 6, P13): 1; Clostridium difficile inhibition ([5]; Table 6, ATCC BAA 1801): 0.5; Clostridium difficile inhibition ([6]; Table 6, P30): 0.5; Clostridium difficile inhibition ([7]; Table 6, P19): 0.5; Clostridium difficile inhibition ([8]; Table 6, P2): 0.5; Clostridium difficile inhibition ([9]; Table 6, I9): 0.5; Clostridium difficile inhibition [12]: 0.5; Clostridium difficile inhibition ([10]; Table 6, I6): 0.5; MIC (S. aureus [13]): 4 µg/mL (≈ 8.19 µM)

The next lines start with results.

MIC (MRSA ATCC 33592) [µg/mL] | MIC [2] [µg/mL] | MIC (E. faecalis ATCC 29212) [µg/mL] | MIC (S. aureus ATCC 25923) [µg/mL] | MIC [3] [µg/mL] | Structure (SMILES) | inhibition of growth of S. aureus (S. aureus [1]) | also measured
8 (≈ 18.5 µM) | 16 (≈ 37 µM) | 16 (≈ 37 µM) | 8 (≈ 18.5 µM) | 16 (≈ 37 µM) | CC1CCCCN1S(=O)(=O)c1ccc(C(=O)Nc2nnc(-c3cccs3)o2)cc1 (stereo not drawn) [Compound F5] | significantly inhibited the growth | –
1 (≈ 2.11 µM) | 2 (≈ 4.21 µM) | 4 (≈ 8.42 µM) | 2 (≈ 4.21 µM) | 2 (≈ 4.21 µM) | CC1CC(C)CN(S(=O)(=O)c2ccc(C(=O)Nc3nnc(-c4ccc(Cl)cc4)o3)cc2)C1 (stereo not drawn) [Compound F6-5, N-(5-(4-Chlorophenyl)-1,3,4-oxadiazol-2-yl)-4-((3,5-dimethylpiperidin-1-yl)sulfonyl)benzamide] | active | –
32 (≈ 67.7 µM) | 32 (≈ 67.7 µM) | 32 (≈ 67.7 µM) | 32 (≈ 67.7 µM) | 32 (≈ 67.7 µM) | COc1cccc(-c2nnc(NC(=O)c3ccc(S(=O)(=O)N(C)CC4CCCO4)cc3)o2)c1 (stereo not drawn) [Compound G8] | significantly inhibited the growth | –
